Test results reported in patent publication US20100040630A1, “METHODS AND COMPOSITIONS FOR TREATING BONE LOSS” (priority 2008, published 2010).

Legend:
[1] = tested on: early (<3 yrs), active, MTX-naive RA patients; test: Subanalysis of Study J: DXR-MCI hand bone loss by clinical response (DAS28 subgroups); assay type: in vivo, human; details: for Mean % DXR-MCI change / median % DXR-MCI change: baseline to 52 weeks
Protocol: As described above, Study J compared the efficacy of adalimumab plus MTX vs. MTX alone and adalimumab alone in early (<3 yrs), active, MTX-naive RA patients. The subanalysis described herein involved the MTX monotherapy and the combination therapy groups. Hand bone loss was assessed by digital X-ray radiogrammetry metacarpal cortical index (DXR-MCI), calculated from digitized radiographs (DXR, Sectra, Sweden). […] MCI percentage change from baseline to 52 weeks was evaluated for patients with different clinical response. Disease activity was assessed by DAS28 scores at 52 weeks in 4 subgroups: Remission=DAS28<2.60; Low disease activity=DAS28 2.61-3.20; Moderate disease activity=DAS28 3.21-5.20; and high disease activity=DAS28>5.20. Non-parametric group comparisons were performed.

[2] = tested on: patients with early rheumatoid arthritis; test: Study J: radiographic joint damage, modified Sharp score; assay type: in vivo, human
Source text: (§1) The radiographic and clinical data from this 2-year, multi-centre, double-blind, randomised controlled study (Study J) was previously been described in detail (see Breedveld et al. (2006) Arthritis Rheum 54:26-37). The efficacy and safety of adalimumab plus MTX was compared with adalimumab monotherapy and with MTX monotherapy for 799 adult patients with early (<3 years), aggressive RA (mean erosion score of approximately 12 Sharp units, estimated annual TSS progression of approximately 27 Sharp units) who previously had not been treated with MTX, cyclophosphamide, cyclosporine, azathioprin or more than 2 other DMARDs (Breedveld et al. (2006), supra). […] Radiographs from hands and feet were scored according to a modified Sharp score (range 0-398) (Breedveld et al. (2006), supra).

[3] = tested on: patients with early rheumatoid arthritis; test: Study J: cortical hand bone loss by digital X-ray radiogrammetry metacarpal cortical index (DXR-MCI); assay type: in vivo, human; details: for median percentage DXR-MCI change: change from baseline
Protocol: Generally, the study included 768 patients with active RA for <3 years who were naïve to MTX. Clinical data collections and radiographic examinations of hands were performed at baseline, and after 26, 52 and 104 weeks of therapy. Hand bone loss was assessed by digital X-ray radiogrammetry (DXR), primarily as metacarpal cortical index (MCI), on the same radiographs used for joint damage assessments.
as §1
(§2) Digital X-ray radiogrammetry (DXR) (Sectra, Linkoping, Sweden) was used to measure hand bone mineral density (BMD) and metacarpal cortical index (MCI) on the same digitized hand X-rays used for assessment of radiographic joint damage. DXR is a computer version of the traditional radiogrammetry technique,[13] and have improved the method and its precision substantially. DXR has been described in detail.[14,15,16] On hand radiographs, the computer automatically recognizes regions of interest (ROI) around the narrowest part of the second, third, and fourth metacarpal bone and measures cortical thickness, bone width, and porosity 118 times per cm. DXR-BMD is defined as: c X VPAcomb X (1-p), where c is a constant (determined by the result that DXR-BMD, on average, is equal to the mid-distal forearm region of the Hologic QDR-2000 device); VPA is volume per area; and p is porosity. DXR-MCI is defined as the combined cortical thickness divided by the outer cortical diameter and is a relative bone measure independent of bone size, bone length, and image capture setting.[16.17] Both DXR-BMD and DXR-MCI provide substantial degrees of precision.[17]
DXR-BMD was intended to be the main outcome measure in this study. However, many radiographs could not be analysed for BMD because of unknown image resolution. Generally, the equation for DXR-BMD is based on volume per area and requires a defined or known resolution, since a distance in a digitised radiograph cannot be measured when the resolution is unknown. Thus, DXR-MCI, which is a relative measure independent of image resolution, was used as the primary outcome measure. […] [19]
(§3) To avoid bias regarding dominant vs. non-dominant hand and to achieve better accuracy, mean value measurements from both hands were used.[10] If the radiograph from one hand could not be analysed or were missing, the radiograph from the available hand for all analyses at the different time points was used.
(§4) Since the data were not normally distributed, non-parametric analyses were conducted. No imputations were performed. Baseline values were compared between treatment groups with the Kruskall-Wallis method for continuous variables and with the chi-squared method for categorical variables. Comparisons of changes in hand BMD were conducted following methodologies parallel and similar to ones employed in the original Study J. Two groups were compared in a hierarchical order with the Mann-Whitney U test (i.e., two-sided comparison of the combination group vs. MTX, followed by two-sided comparisons between the monotherapy treatment arms, and finally two-sided comparisons between the adalimumab monotherapy and the combination group). Each pair-wise comparison was completed only if the previous comparison was statistically significant. […]

[4] = tested on: patients with early rheumatoid arthritis; test: Study J: hand bone mineral density by digital X-ray radiogrammetry (DXR-BMD); assay type: in vivo, human
Source text: as §1, §2
For comparison, results for DXR-BMD are also provided. All images of unknown resolution were analyzed by assuming 254 dpi (the scanning resolution for the radiographs before scoring). Several of the radiographs were, however, clearly of a resolution other than 254 dpi, most likely because they had been printed in non-true size before scanning. All available images from baseline were analyzed, as well as 26, 52 and 104 weeks, by DXR-BMD and calculated mean metacarpal width. Based on analyses from other studies with a controlled resolution, [19] a deviation from baseline width greater than 2% was believed to likely indicate an incorrect value. With this 2% value as a cut-off, 23% of the radiographs were excluded from further DXR-BMD analyses. The flow chart in FIG. 1 illustrates the patients who were included in the DXR-MCI and DXR-BMD analyses.
as §3
as §4, with “significant. Bone loss over time was expressed as a negative value.” for “significant.”

RA = details: 7.5 mg daily, compared with placebo; cited from earlier work
RA patients = RA patients receiving infliximab; cited from earlier work
[5] = High disease activity (DAS28>5.20)
[6] = Low disease activity (DAS28 2.61-3.20)
[7] = Moderate disease activity (DAS28 3.21-5.20)

Compound | mean radiographic change in the modified Sharp score ([2]; 26 weeks) | median radiographic change in the modified Sharp score ([2]; 26 weeks) | mean radiographic change in the modified Sharp score ([2]; 52 weeks) | median radiographic change in the modified Sharp score ([2]; 52 weeks) | mean radiographic change in the modified Sharp score ([2]; 104 weeks) | median radiographic change in the modified Sharp score ([2]; 104 weeks) | median percentage DXR-MCI change ([3]; 26 weeks) | median percentage DXR-MCI change ([3]; 52 weeks) | median percentage DXR-MCI change ([3]; 104 weeks) | median DXR-BMD percentage change ([4]; 26 weeks) | median DXR-BMD percentage change ([4]; 52 weeks) | median DXR-BMD percentage change ([4]; 104 weeks) | further results
CN(Cc1cnc2nc(N)nc(N)c2n1)c1ccc(C(=O)N[C@@H](CCC(=O)O)C(=O)O)cc1 [MTX, methotrexate] | 3.4 units | 1.0 units | 5.1 units | 2.0 units | 6.4 units | 2.0 units | −1.42% | −2.87% | −4.62% | −1.20% | −1.86% | −3.58% | difference in bone loss among remission, low, moderate and high disease activity subgroups (in words) ([1]; 52 weeks): numerical differences; DXR-MCI percentage change ([1]; 52 weeks, pooled subgroup moderate and high disease activity (DAS28)): −4.65%; Mean % DXR-MCI change [1, 5]: −4.64%; median % DXR-MCI change [1, 5]: −3.02%; Mean % DXR-MCI change [1, 6]: −2.98%; median % DXR-MCI change [1, 6]: −2.20%; Mean % DXR-MCI change [1, 7]: −4.65%; median % DXR-MCI change [1, 7]: −3.33%; Mean % DXR-MCI change ([1]; Remission (DAS28<2.60)): −2.99%; median % DXR-MCI change ([1]; Remission (DAS28<2.60)): −2.14%
C[C@]12C=CC(=O)C=C1CC[C@@H]1[C@@H]2[C@@H](O)C[C@@]2(C)[C@H]1CC[C@]2(O)C(=O)CO [prednisolone] |  |  |  |  |  |  |  |  |  |  |  |  | rate of hand bone loss (in words) (RA): significantly reduce; rate of radiographic joint damage (in words) (RA): significantly reduce
adalimumab | 2.1 units | 0.5 units | 3.3 units | 0.5 units | 4.8 units | 1.0 units | −1.33% | −2.45% | −4.03% | −0.96% | −1.97% | −2.40% | hand bone loss in relation to clinically assessed disease activity (in words) ([1]; 52 weeks, DAS28 subgroups): reduces hand bone loss independent of clinically assessed disease activity; effect on hand bone loss (in words) ([3]; early RA, Study J): protected against hand bone loss
infliximab |  |  |  |  |  |  |  |  |  |  |  |  | bone loss in hip and spine (in words) (RA patients): arrested; hand bone loss (in words) (RA patients): hand bone loss was not halted
